Biological target: T1, GPR40 (Homo sapiens, UniProt O14842)
T1 construct: expressed in transfected cells; host or cells: HEK293 cells stably expressing GPR40 (Hygromycin selection)
Assay: IP1 accumulation assay in HEK293 cells stably expressing GPR40
Format: cell-based
Protocol: IP1 accumulation assay was used to evaluate the potency of compounds. HEK293 cells stably expressing GPR40 were cultured in 5% CO2 incubator (ThermoFisher) in maintenance media (Dulbecco's modified Eagle's medium with 4.5 g/L of glucose, 10% fetal bovine serum, 100 μg/mL Hygromycin, and Penicillin (100 U/mL)/Streptomycin (100 μg/mL)) till 100% confluency. Cells were harvested freshly, spun down at 300×g for 5 min, and resuspended in pre-warmed 1× stimulant buffer from Cisbio IP-One HTRF Detection kit (Cisbio). Cell density was adjusted to 2.0×10^6 cells/mL. DMSO was used as blank control and AMG-1638 (CAS #: 1142214-62-7) as positive control. Compounds were prepared at 10 mM in DMSO and 5 nL of 3× serially diluted compounds (10 concentrations) were added to each well of the 384-LDV assay plate (Corning) by using ECHO 550 (Labcyte). Five μL of cells in suspension were transferred into each well by using Multidrop Combi Reagent Dispenser (ThermoFisher). Assay plate was then sealed and incubated at 37° C. for 2 hours. IP-d2 reagent and anti-IP1 reagent were prepared following the manual (Cisbio). Five μL of IP1-d2 and then 5 μL of anti-IP1 antibody was added to each well sequentially. Assay plate was incubated at room temperature for 60 min and then read at 665 nm/615 nm on an Envision plate reader (PerkinElmer). The ratio of values obtained at 665 nm and 615 nm was used for calculation of IP1 accumulation: % Effect=(Ratiosample−Ratioblank)/(RatioAMG-1638−Ratioblank)×100. Dose curve was fitted and EC50 of each compound was calculated by using XLFit.

[1] = IP1 accumulation, HEK293 cells stably expressing GPR40, 2 hours at 37° C., % effect relative to AMG-1638, table of Biological Example 1
[2] = Table A-8 (additional examples), obtained by methods of Biological Example 1
[3] = Tables A-1a to A-7b (structure-property relationship), obtained by methods of Biological Example 1

T1 sequence (O14842 whole entry): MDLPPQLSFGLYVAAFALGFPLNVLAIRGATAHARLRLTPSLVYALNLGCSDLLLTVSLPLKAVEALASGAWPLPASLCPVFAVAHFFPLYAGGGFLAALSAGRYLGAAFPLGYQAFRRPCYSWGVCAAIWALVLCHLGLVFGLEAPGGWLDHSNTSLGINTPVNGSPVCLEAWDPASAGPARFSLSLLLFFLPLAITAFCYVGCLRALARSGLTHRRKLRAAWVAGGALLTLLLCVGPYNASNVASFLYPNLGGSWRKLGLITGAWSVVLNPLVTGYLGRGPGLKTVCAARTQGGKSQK

Compound: C[C@H](C(=O)O)[C@H](c1ccc2c(c1)O[C@@H](C1CCN(Cc3cc(-n4cc(CCCCCCCCCCCCC(=O)NCCN(CCC(=O)NCCN)CCC(=O)NCCN)nn4)ccc3OC(F)(F)F)CC1)CC2)C1CC1 [Example 1, (2S,3R)-3-((R)-2-(1-(5-(4-(13-((2-(bis(3-((2-aminoethyl)amino)-3-oxopropyl)amino)ethyl)amino)-13-oxotridecyl)-1H-1,2,3-triazol-1-yl)-2-(trifluoromethoxy)benzyl)piperidin-4-yl)chroman-7-yl)-3-cyclopropyl-2-methylpropanoic acid]
- EC50 [1]: 5.46 nM
- EC50 [2]: 5.46 nM
- EC50 [3]: 5.46 nM

Compound: C[C@H](C(=O)O)[C@H](c1ccc2c(c1)O[C@@H](C1CCN(Cc3cc(-n4cc(CCCCCCCCCCCCC(=O)NCC[N+](C)(CCC(=O)NCCN)CCC(=O)NCCN)nn4)ccc3OC(F)(F)F)CC1)CC2)C1CC1 [Example 2]
- EC50 [1]: 9.46 nM
- EC50 [2]: 9.46 nM
- EC50 [3]: 9.46 nM

Compound: C[C@H](C(=O)O)[C@H](c1ccc2c(c1)O[C@@H](C1CCN(Cc3cc(-n4cc(CCCCCCCCCCCCCCCCCC(=O)NCCN(CCC(=O)NCCN)CCC(=O)NCCN)nn4)ccc3OC(F)(F)F)CC1)CC2)C1CC1 [Example 3]
- EC50 [1]: 1.1 nM
- EC50 [3]: 1.1 nM

Compound: C[C@H](C(=O)O)[C@H](c1ccc2c(c1)O[C@@H](C1CCN(Cc3cc(-n4cc(CCCCCCCCCCCCCCCCCC(=O)NCC[N+](C)(CCC(=O)NCCN)CCC(=O)NCCN)nn4)ccc3OC(F)(F)F)CC1)CC2)C1CC1 [Example 4]
- EC50 [1]: 0.31 nM
- EC50 [3]: 0.31 nM

Compound: C[C@H](C(=O)O)[C@H](c1ccc2c(c1)O[C@@H](C1CCN(Cc3cc(-c4cn(CCCCCCCCCCCCCC(=O)NCCN(CCC(=O)NCCN)CCC(=O)NCCN)nn4)ccc3OC(F)(F)F)CC1)CC2)C1CC1 [Example 5]
- EC50 [1]: 15.2 nM
- EC50 [3]: 15.2 nM

Compound: C[C@H](C(=O)O)[C@H](c1ccc2c(c1)O[C@@H](C1CCN(Cc3cc(-c4cn(CCCCCCCCCCCCCCCCCC(=O)NCCN(CCC(=O)NCCN)CCC(=O)NCCN)nn4)ccc3OC(F)(F)F)CC1)CC2)C1CC1 [Example 6]
- EC50 [1]: 1.21 nM
- EC50 [3]: 1.21 nM

Compound: C[C@H](C(=O)O)[C@H](c1ccc2c(c1)O[C@@H](C1CCN(Cc3cc(-c4cn(CCCCCCCCCCCCCCCCCC(=O)NCC[N+](C)(CCC(=O)NCCN)CCC(=O)NCCN)nn4)ccc3OC(F)(F)F)CC1)CC2)C1CC1 [Example 7]
- EC50 [1]: 0.65 nM
- EC50 [3]: 0.65 nM

Compound: COc1ccc(F)c(-c2ccc(COc3cccc([C@@H](CC(=O)O)C4CC4)c3)cc2C(C)(C)c2cn(CCCCCCCCCCCCCC(=O)NCCN(CCC(=O)NCCN)CCC(=O)NCCN)nn2)c1 [Example 8]
- EC50 [1]: > 1000 nM

Compound: COc1ccc(F)c(-c2ccc(COc3cccc([C@@H](CC(=O)O)C4CC4)c3)cc2C(C)(C)c2cn(CCCCCCCCCCCCCC(=O)NCC[N+](C)(CCC(=O)NCCN)CCC(=O)NCCN)nn2)c1 [Example 9]
- EC50 [1]: 640 nM

Compound: COc1ccc(F)c(-c2ccc(COc3cccc([C@@H](CC(=O)O)C4CC4)c3)cc2C(C)(C)c2cn(CCCCCCCCCCCCCCCCCC(=O)NCCN(CCC(=O)NCCN)CCC(=O)NCCN)nn2)c1 [Example 10]
- EC50 [1]: 32.7 nM

Compound: COc1ccc(F)c(-c2ccc(COc3cccc([C@@H](CC(=O)O)C4CC4)c3)cc2C(C)(C)c2cn(CCCCCCCCCCCCCCCCCC(=O)NCC[N+](C)(CCC(=O)NCCN)CCC(=O)NCCN)nn2)c1 [Example 11]
- EC50 [1]: 20.3 nM

Compound: COc1ccc(F)c(-c2ccc(COc3cccc([C@@H](CC(=O)O)C4CC4)c3)cc2C(OCCCCCn2cc(CCCCCCCCCCCCCCCCCC(=O)NCCN(CCC(=O)NCCN)CCC(=O)NCCN)nn2)C(C)(C)C)c1 (stereo partly shown) [Example 12]
- EC50 [1]: 1.12 nM

Compound: COc1ccc(F)c(-c2ccc(COc3cccc([C@@H](CC(=O)O)C4CC4)c3)cc2C(OC)C(C)(C)Cn2cc(CCCCCCCCCCCCCCCCCC(=O)NCCN(CCC(=O)NCCN)CCC(=O)NCCN)nn2)c1 (stereo partly shown) [Example 14]
- EC50 [1]: 8.8 nM

Compound: COc1ccc(F)c(-c2ccc(COc3cccc([C@@H](CC(=O)O)C4CC4)c3)cc2C(OC)C(C)(C)Cn2cc(CCCCCCCCCCCCCCCCCC(=O)NCC[N+](C)(CCC(=O)NCCN)CCC(=O)NCCN)nn2)c1 (stereo partly shown) [Example 15]
- EC50 [1]: 58.4 nM

Compound: COc1ccc(F)c(-c2ccc(COc3cccc([C@@H](CC(=O)O)C4CC4)c3)cc2CC(C)(C)Cn2cc(CCCCCCCCCCCCC(=O)NCCN(CCC(=O)NCCN)CCC(=O)NCCN)nn2)c1 [Example 16]
- EC50 [1]: 460 nM
- EC50 [2]: 706 nM
- EC50 [3]: 460 nM

Compound: COc1ccc(F)c(-c2ccc(COc3cccc([C@@H](CC(=O)O)C4CC4)c3)cc2CC(C)(C)Cn2cc(CCCCCCCCCCCCC(=O)NCC[N+](C)(CCC(=O)NCCN)CCC(=O)NCCN)nn2)c1 [Example 17]
- EC50 [1]: 152 nM
- EC50 [2]: 169 nM
- EC50 [3]: 152 nM

Compound: COc1ccc(F)c(-c2ccc(COc3cccc([C@@H](CC(=O)O)C4CC4)c3)cc2CC(C)(C)Cn2cc(CCCCCCCCCCCCCCCCCC(=O)NCCN(CCC(=O)NCCN)CCC(=O)NCCN)nn2)c1 [Example 18]
- EC50 [1]: 2.25 nM
- EC50 [3]: 2.25 nM

Compound: COc1ccc(F)c(-c2ccc(COc3cccc([C@@H](CC(=O)O)C4CC4)c3)cc2CC(C)(C)Cn2cc(CCCCCCCCCCCCCCCCCC(=O)NCC[N+](C)(CCC(=O)NCCN)CCC(=O)NCCN)nn2)c1 [Example 19]
- EC50 [1]: 1.66 nM
- EC50 [3]: 1.66 nM

Compound: COc1ccc(F)c(-c2ccc(COc3cccc([C@@H](CC(=O)O)C4CC4)c3)cc2CC(C)(C)Cc2cn(CCCCCCCCCCCCCC(=O)NCCN(CCC(=O)NCCN)CCC(=O)NCCN)nn2)c1 [Example 21]
- EC50 [1]: 49.4 nM
- EC50 [3]: 49 nM

Compound: COc1ccc(F)c(-c2ccc(COc3cccc([C@@H](CC(=O)O)C4CC4)c3)cc2CC(C)(C)Cc2cn(CCCCCCCCCCCCCC(=O)NCC[N+](C)(CCC(=O)NCCN)CCC(=O)NCCN)nn2)c1 [Example 22]
- EC50 [1]: 49 nM
- EC50 [3]: 49 nM

Compound: COc1ccc(F)c(-c2ccc(COc3cccc([C@@H](CC(=O)O)C4CC4)c3)cc2CC(C)(C)Cc2cn(CCCCCCCCCCCCCCCCCC(=O)NCCN(CCC(=O)NCCN)CCC(=O)NCCN)nn2)c1 [Example 23]
- EC50 [1]: 0.96 nM
- EC50 [3]: 0.96 nM

Compound: COc1ccc(F)c(-c2ccc(COc3cccc([C@@H](CC(=O)O)C4CC4)c3)cc2CC(C)(C)Cc2cn(CCCCCCCCCCCCCCCCCC(=O)NCC[N+](C)(CCC(=O)NCCN)CCC(=O)NCCN)nn2)c1 [Example 24]
- EC50 [1]: 2.04 nM
- EC50 [3]: 2.04 nM

Compound: COc1ccc(F)c(-c2ccc(COc3cccc([C@@H](CC(=O)O)C4CC4)c3)cc2OC(C)(C)COCc2cn(CCCCCCCCCCCCCC(=O)NCCN(CCC(=O)NCCN)CCC(=O)NCCN)nn2)c1 [Example 25]
- EC50 [1]: 132 nM

Compound: COc1ccc(F)c(-c2ccc(COc3cccc([C@@H](CC(=O)O)C4CC4)c3)cc2OC(C)(C)COCc2cn(CCCCCCCCCCCCCC(=O)NCC[N+](C)(CCC(=O)NCCN)CCC(=O)NCCN)nn2)c1 [Example 26]
- EC50 [1]: 75.8 nM

Compound: COc1ccc(F)c(-c2ccc(COc3cccc([C@@H](CC(=O)O)C4CC4)c3)cc2OC(C)(C)COCc2cn(CCCCCCCCCCCCCCCCCC(=O)NCCN(CCC(=O)NCCN)CCC(=O)NCCN)nn2)c1 [Example 27]
- EC50 [1]: 5.32 nM

Compound: COc1ccc(F)c(-c2ccc(COc3cccc([C@@H](CC(=O)O)C4CC4)c3)cc2OC(C)(C)COCc2cn(CCCCCCCCCCCCCCCCCC(=O)NCC[N+](C)(CCC(=O)NCCN)CCC(=O)NCCN)nn2)c1 [Example 28]
- EC50 [1]: 4.77 nM

Compound: COc1ccc(F)c(-c2ccc(COc3cccc([C@@H](CC(=O)O)C4CC4)c3)cc2OC(C)(C)Cn2cc(CCCCCCCCCCCCC(=O)NCCN(CCC(=O)NCCN)CCC(=O)NCCN)nn2)c1 [Example 29]
- EC50 [1]: > 1000 nM

Compound: COc1ccc(F)c(-c2ccc(COc3cccc([C@@H](CC(=O)O)C4CC4)c3)cc2OC(C)(C)Cn2cc(CCCCCCCCCCCCC(=O)NCC[N+](C)(CCC(=O)NCCN)CCC(=O)NCCN)nn2)c1 [Example 30]
- EC50 [1]: 298 nM

Compound: COc1ccc(F)c(-c2ccc(COc3cccc([C@@H](CC(=O)O)C4CC4)c3)cc2OC(C)(C)Cn2cc(CCCCCCCCCCCCCCCCCC(=O)NCCN(CCC(=O)NCCN)CCC(=O)NCCN)nn2)c1 [Example 31]
- EC50 [1]: 2.28 nM

Compound: COc1ccc(F)c(-c2ccc(COc3cccc([C@@H](CC(=O)O)C4CC4)c3)cc2OC(C)(C)Cn2cc(CCCCCCCCCCCCCCCCCC(=O)NCC[N+](C)(CCC(=O)NCCN)CCC(=O)NCCN)nn2)c1 [Example 32]
- EC50 [1]: 1.98 nM

Compound: COc1ccc(F)c(-c2ccc(COc3cccc([C@@H](CC(=O)O)C4CC4)c3)cc2C(OCCCCCn2cc(CCCCCCCCCCCCC(=O)NCCN(CCC(=O)NCCN)CCC(=O)NCCN)nn2)C(C)(C)C)c1 (stereo partly shown) [Example 33]
- EC50 [1]: 36.8 nM

Compound: COc1ccc(F)c(-c2ccc(COc3cccc([C@@H](CC(=O)O)C4CC4)c3)cc2C(OCCCCCn2cc(CCCCCCCCCCCCC(=O)NCC[N+](C)(CCC(=O)NCCN)CCC(=O)NCCN)nn2)C(C)(C)C)c1 (stereo partly shown) [Example 34]
- EC50 [1]: 1.91 nM

Compound: C[C@H](C(=O)O)[C@H](c1ccc2c(c1)O[C@@H](C1CCN(Cc3cc(-c4cn(CCCCCCCCCCCCCCCCCC(=O)NCC[N+](C)(C)C)nn4)ccc3OC(F)(F)F)CC1)CC2)C1CC1 [Example 35]
- EC50 [1]: 1.18 nM
